Experiment [1] can be described thus: DFT-predicted CO2 binding free energy and charge/bond-order analysis of phosphido-boranes. As for the experimental part: (§1) All Density Functional Theory calculations were performed using the Jaguar v10.9 software from Schrodinger Inc. All calculations utilized the M06-2X meta-GGA functional with the D3 empirical correction for London Dispersion forces.^21, 22
(§2) All atoms were described by the 6-311G**++ Pople basis set,^23 augmented with polarization and diffuse functions.
(§3) All calculations included a continuum solvent treatment described by the Polarizable Continuum Model (CPCM).^24
(§4) Unless otherwise noted, we used solvent parameters matching tetrahydrofuran (dielectric constant=7.6, probe radius=2.52).
(§5) Vibrational frequency calculations were performed to confirm that all geometries are true minima (no negative eigenmodes of the Hessian) and to compute thermochemical properties such as enthalpy (H), entropy (S), and free energies (G) at 298.15 K. Because librational modes are hindered in solvent media, we corrected our free energies by reducing translational and rotational entropy modes by 50%.

Experiment [2] is described as follows: DFT transition state barrier for CO2 binding. Conditions: Li+ coordinated to a CO2 oxygen and the hydrides of BH3−. The method, then:
as §1, §2, §3, §4, §5

Experiment [3] can be described thus: CO2 gas bubbled through phosphido-borane salt in THF, NMR analysis. Conditions: CO2 at 1 atm, room temperature. As for the experimental part:
Here 0.2218 g of the resulting phosphido-borane was dissolved in 3 ml of tetrahydrofuran (THF) in a 10 ml valve. Here 2 ml of THF was used to dissolve 0.1856 g of lithium bis(trimethylsilyl)amide (LiHMDS). The solution of LiHMDS was added drop wise to the solution of Li[Ph2PBH3] to minimize side reactions.
CO2 gas was then bubbled through lithiated anionic phosphido-borane salt at 1 atm and room temperature for about 10 mins to saturate it with CO2.
A typical one pot procedure for preparing the CO2 adducts was adding a solution of Ph2PHBH3 (5.314 mmol, in 4 ml of THF) to solution of MHMDs (5.314 mmol, in 4 ml of THF) dropwisely. An aliquot of the resulting was analyzed with the nmr to confirm the complete formation of M(Ph2PBH3) salt. The bulk solution was then saturated with CO2 gas under standard atmospheric pressure and temperature. The product was then crushed out with hexanes resulting in a whitish precipitate. Yield 98.5%

With “anionic diphenylphosphido-borane [BoPh 4]”, in experiment [1] (Li+ distance from the O—BH3 pocket increased by 0.35 Å), the “increase in binding energy on increasing counterion distance” value is reported as “+5.9 kcal”. The “increase of overall ΔG by explicit solvation” value in experiment [1] (explicit THF solvation vs continuum) is recorded as “+2.9 kcal/mol”. In experiment [2], the “reduction of ΔG‡ relative to Na+” value is ~2 kcal/mol. Besides, the “CO2 binding observed in experiment” value in experiment [3] (listed as LiPh2PBH3) is given as “binds successfully with the CO2 molecule”; in experiment [3] (listed as lithiated anionic phosphido-borane salt), “formation of P—CO2 adducts”.

Source of the values: patent US20250352981A1, “PHOSPHOROUS BORON-BONDED COMPOUNDS FOR CAPTURING, STORING AND/OR UTILIZING CARBON DIOXIDE AND RELATED PRODUCTS COMPOSITIONS METHODS AND SYSTEMS” (California Institute of Technology, priority 2024, published 2025).
